# Assay results as given in patent publication US8153559B2, “Certain plant growth regulators (PGRs) as safener to Glyphosate for application to Glyphosate-tolerant crops” (CP Bio, Inc., priority 2004, dated 2012).
# System: Round-Up Ready crops
# Assay: Field tests on use of Glyphosate on Round-Up Ready crops
# Assay type: in vivo
# Settings: Glyphosate-tolerant (Round-Up Ready) crops
# Source text: This adverse effect is referred to as the Glyphosate's phytotoxicity in present application.
smiles,measurement,value
O=C(O)CNCP(=O)(O)O [Glyphosate],effect on the growth of Round-Up Ready crops (Glyphosate's phytotoxicity),substantial adverse effect to the growth
